EC90 and IC90 data for nine compounds are collected here from EP0321273A2, “Thioformamide derivatives” (RHONE POULENC RORER LIMITED, priority 1987, dated 1989).

Experiment [1] has as its system isolated rat aorta. Kind of experiment: Test A: activity against contractions induced by low K+ concentrations (20 mM K+) in the isolated rat aorta. It is filed as cell-based. As to conditions: concentration reducing the contraction induced by 20 mM K⁺ by 90%; rat thoracic aorta strips denuded of endothelium, Krebs solution, cumulative concentrations; read-out: Activity Test A EC₉₀. Here is the method:
(§1) The test methods used were adapted from those described by Winslow et al [Eur.J.Pharmacol., 131, 219-228 (1986)] and Karaki [J.Pharmacol. Methods, 18, 1-21 (1987)] for differentiating vaso-relaxant activity.
Test A : Activity against contractions induced by low K⁺ concentrations in the isolated rat aorta
Thoracic aorta was removed from rats and transverse strips, denuded of endothelium, were suspended in a bath containing Krebs solution. The tension was recorded and a contraction induced by addition of 20 mM K⁺ (potassium ion) to the bathing solution. The test compound was added to the bath as a solution in increasing cumulative concentration. The concentration in the bathing solution of the test compound which reduced the K⁺-induced contraction by 90% was determined and expressed in µM as the effective concentration (EC₉₀), given in Table I.

Experiment [2] relates to isolated rat aorta. Kind of experiment: Test B: activity against contractions induced by high K+ concentrations (60 mM K+) in isolated rat aorta. It is filed as cell-based. As to conditions: contraction induced by 60 mM K⁺; rat thoracic aorta strips denuded of endothelium, cumulative addition; read-out: concentration in the bath reducing the K⁺-induced contraction by 90%. Here is the method: as §1
Test B : Activity against contractions induced by high K⁺ concentrations in isolated rat aorta
The test method was as in Test A except that contractions were induced by addition of 60 mM K⁺ to the bathing solution. The cumulative addition of solutions of the test compound was conducted and the concentration in the bath reducing the K⁺-induced contraction by 90% was greater than 30µM for Compounds C, D, E, F, I, J and K, and much greater than 30µM for Compound A. Table I

Structures are written as SMILES. Bounds are passed on as bounds.

Take `CNC(=S)C1(c2ccccc2)CCCCC1=O` (racemic) [Compound A, (±)-N-methyl-2-oxo-1-phenylcyclohexanecarbothioamide]: the EC90 in experiment [1] is 29 µM. Further, the IC90 in experiment [2] is > 30 µM. As for `CNC(=S)C1(c2ccccc2)CCCCC1=NO` (racemic) [Compound C, (±)-anti-N-methyl-2-hydroxyimino-1-phenylcyclohexanecarbothioamide], the EC90 in experiment [1] was > 30 µM. Also, the IC90 in experiment [2] was > 30 µM. Regarding `CNC(=S)C1(c2ccccc2)CCCCC1=NOC` (racemic) [Compound D, (±)-anti-N-methyl-2-methoxyimino-1-phenylcyclohexanecarbothioamide], in experiment [1], the EC90 was 20 µM. Also, the IC90 in experiment [2] is > 30 µM.

Regarding `CNC(=S)C1(c2cccc([N+](=O)[O-])c2)CCCCC1=O` (racemic) [Compound K, (±)-N-methyl-2-oxo-1-(3-nitrophenyl)cyclohexanecarbothioamide], the EC90 in experiment [1] worked out at 0.7 µM. Moreover, the IC90 in experiment [2] is > 30 µM.

Take `CNC(=S)C1(c2ccc(Cl)cc2)CCCCC1=O` (racemic) [E, (±)-N-methyl-2-oxo-1-(4-chlorophenyl)cyclohexanecarbothioamide]: the EC90 in experiment [1] was 12 µM. Moreover, the IC90 in experiment [2] was > 30 µM. For the compound `CNC(=S)C1(c2cccc(C(F)(F)F)c2)CCCCC1=O` (racemic) [F, (±)-N-methyl-2-oxo-1-(3-trifluoromethylphenyl)cyclohexanecarbothioamide], the EC90 in experiment [1] worked out at 0.9 µM. The IC90 in experiment [2] is > 30 µM. On to `CNC(=S)C1(c2ccccc2)CCCCC1=NOCc1ccc(F)cc1` (racemic) [H, (±)-anti-N-methyl-2-(4-fluorobenzyloxyimino)-1-phenylcyclohexanecarbothioamide], for which the EC90 in experiment [1] stood at 0.6 µM. Regarding `CNC(=S)C1(c2ccc3ccccc3c2)CCCCC1=O` (racemic) [I, (±)-N-methyl-2-oxo-1-(2-naphthyl)cyclohexanecarbothioamide], the EC90 in experiment [1] was found to be 2 µM. In addition, the IC90 in experiment [2] was > 30 µM. Turning to `CNC(=S)C1(c2ccc(Cl)c(Cl)c2)CCCCC1=O` (racemic) [J, (±)-N-methyl-2-oxo-1-(3,4-dichlorophenyl)cyclohexanecarbothioamide], the EC90 in experiment [1] was 0.4 µM. The IC90 in experiment [2] was > 30 µM.
